Results: ChEMBL document CHEMBL3774345, “Synthesis of new diarylamides with pyrimidinyl pyridine scaffold and evaluation of their anti-proliferative effect on cancer cell lines” (Bioorg Med Chem Lett, 2016)

What was measured:
Assay type in all cases: functional
NCI-H522 = test: Cytotoxicity against human NCI-H522 cells assessed as cell growth at 10 uM after 24 hrs by SRB assay; settings: NCI-H522, 24 h, read-out: Activity
[1] = Cytotoxicity against human HCT15 cells assessed as cell growth at 10 uM after 24 hrs by SRB assay; settings: HCT-15, 24 h, read-out: Activity
[2] = Cytotoxicity against human SW620 cells assessed as cell growth at 10 uM after 24 hrs by SRB assay; settings: SW-620, 24 h, read-out: Activity
[3] = Cytotoxicity against human SF268 cells assessed as cell growth at 10 uM after 24 hrs by SRB assay; settings: SF-268, 24 h, read-out: Activity
[4] = Cytotoxicity against human SF295 cells assessed as cell growth at 10 uM after 24 hrs by SRB assay; settings: SF-295, 24 h, read-out: Activity
[5] = Cytotoxicity against human SNB75 cells assessed as cell growth at 10 uM after 24 hrs by SRB assay; settings: SNB-75, 24 h, read-out: Activity
SK-MEL-28 = test: Cytotoxicity against human SK-MEL-28 cells assessed as cell growth at 10 uM after 24 hrs by SRB assay; settings: SK-MEL-28, 24 h, read-out: Activity
[6] = Cytotoxicity against human UACC257 cells assessed as cell growth at 10 uM after 24 hrs by SRB assay; settings: UACC-257, 24 h, read-out: Activity
[7] = Cytotoxicity against human OVCAR5 cells assessed as cell growth at 10 uM after 24 hrs by SRB assay; settings: OVCAR-5, 24 h, read-out: Activity
[8] = Cytotoxicity against human NCI-ADR-RES cells assessed as cell growth at 10 uM after 24 hrs by SRB assay; settings: read-out: Activity
ACHN = test: Cytotoxicity against human ACHN cells assessed as cell growth at 10 uM after 24 hrs by SRB assay; settings: read-out: Activity
[9] = Cytotoxicity against human Caki1 cells assessed as cell growth at 10 uM after 24 hrs by SRB assay; settings: CAKI-1, 24 h, read-out: Activity
SN12C = test: Cytotoxicity against human SN12C cells assessed as cell growth at 10 uM after 24 hrs by SRB assay; settings: read-out: Activity
[10] = Cytotoxicity against human DU145 cells assessed as cell growth at 10 uM after 24 hrs by SRB assay; settings: DU-145, 24 h, read-out: Activity
[11] = Cytotoxicity against human NCI60 cells assessed as growth inhibition at 10 uM after 24 hrs by SRB assay; settings: NCI60, 24 h
K562 [12] = test: Cytotoxicity against human K562 cells assessed as cell growth at 10 uM after 24 hrs by SRB assay; settings: K562, 24 h, read-out: Activity
[13] = Cytotoxicity against human MOLT4 cells assessed as cell growth at 10 uM after 24 hrs by SRB assay; settings: MOLT-4, 24 h, read-out: Activity
SR = test: Cytotoxicity against human SR cells assessed as cell growth at 10 uM after 24 hrs by SRB assay; settings: read-out: Activity
NCI-H226 [14] = test: Cytotoxicity against human NCI-H226 cells assessed as cell growth at 10 uM after 24 hrs by SRB assay; settings: NCI-H226, 24 h, read-out: Activity
NCI-H23 = test: Cytotoxicity against human NCI-H23 cells assessed as cell growth at 10 uM after 24 hrs by SRB assay; settings: NCI-H23, 24 h, read-out: Activity
A498 = test: Cytotoxicity against human A498 cells assessed as growth inhibition at 10 uM after 24 hrs by SRB assay; settings: A498, 24 h, read-out: GI
NCI-H226 [15] = test: Cytotoxicity against human NCI-H226 cells assessed as growth inhibition at 10 uM after 24 hrs by SRB assay; settings: NCI-H226, 24 h, read-out: GI
A549 [16] = test: Cytotoxicity against human A549 cells assessed as cell growth at 10^-7 M after 24 hrs by SRB assay; settings: A549, 24 h, read-out: Activity
[17] = Cytotoxicity against human HOP62 cells assessed as cell growth at 10^-7 M after 24 hrs by SRB assay; settings: HOP-62, 24 h, read-out: Activity
[18] = Cytotoxicity against human HL-60(TB) cells assessed as cell growth at 10 uM after 24 hrs by SRB assay; settings: HL-60, 24 h, read-out: Activity
[19] = Cytotoxicity against human OVCAR4 cells after 24 hrs by SRB assay; settings: OVCAR-4, 24 h
A549 [20] = test: Cytotoxicity against human A549 cells assessed as cell growth at 10^-8 M after 24 hrs by SRB assay; settings: A549, 24 h, read-out: Activity
M14 = test: Cytotoxicity against human M14 cells assessed as cell growth at 10^-8 M after 24 hrs by SRB assay; settings: M14, 24 h, read-out: Activity
[21] = Cytotoxicity against human SNB75 cells assessed as cell growth at 10^-5 M after 24 hrs by SRB assay; settings: SNB-75, 24 h, read-out: Activity
[22] = Cytotoxicity against human UO31 cells assessed as cell growth at 10^-5 M after 24 hrs by SRB assay; settings: UO-31, 24 h, read-out: Activity
[23] = Cytotoxicity against human HOP92 cells assessed as growth inhibition at 10 uM after 24 hrs by SRB assay; settings: HOP-92, 24 h, read-out: GI
[24] = Cytotoxicity against human UO31 cells assessed as growth inhibition at 10 uM after 24 hrs by SRB assay; settings: UO-31, 24 h, read-out: GI
[25] = Cytotoxicity against human RPMI8226 cells assessed as growth inhibition at 10 uM after 24 hrs by SRB assay; settings: RPMI-8226, 24 h, read-out: GI
SK-MEL-5 = test: Cytotoxicity against human SK-MEL-5 cells assessed as growth inhibition at 10 uM after 24 hrs by SRB assay; settings: SK-MEL-5, 24 h, read-out: GI
MDA-MB-231 = test: Cytotoxicity against human MDA-MB-231 cells assessed as growth inhibition at 10 uM after 24 hrs by SRB assay; settings: MDA-MB-231, 24 h, read-out: GI
T47D = test: Cytotoxicity against human T47D cells assessed as growth inhibition at 10 uM after 24 hrs by SRB assay; settings: read-out: GI
K562 [26] = test: Cytotoxicity against human K562 cells assessed as growth inhibition at 10 uM after 24 hrs by SRB assay; settings: K562, 24 h, read-out: GI

Row | SMILES | growth at 10 µM (NCI-H522) [%] | growth at 10 µM [1] [%] | growth at 10 µM [2] [%] | growth at 10 µM [3] [%] | growth at 10 µM [4] [%] | growth at 10 µM [5] [%] | growth at 10 µM (SK-MEL-28) [%] | growth at 10 µM [6] [%] | growth at 10 µM [7] [%] | growth at 10 µM [8] [%] | growth at 10 µM (ACHN) [%] | growth at 10 µM [9] [%] | growth at 10 µM (SN12C) [%] | growth at 10 µM [10] [%] | inhibition at 10 µM [11] [%] | growth at 10 µM (K562 [12]) [%] | growth at 10 µM [13] [%] | growth at 10 µM (SR) [%] | growth at 10 µM (NCI-H226 [14]) [%] | growth at 10 µM (NCI-H23) [%] | also measured
1 | Cc1cc(Cl)ccc1C(=O)Nc1cc(-c2cccnc2)nc(NCCCN2CCOCC2)n1 | 82.8 | 104 | 99 | 101 | 97.9 | 91.3 | 95.3 | 95 | 94.1 | 106 | 100 | 101 | 111 | 97.6 | 1.46 | 113 | 98 | 98.7 | 77.6 | 96.7 | inhibition of growth at 10 µM (A498): 22.8%; inhibition of growth at 10 µM (NCI-H226 [15]): 22.4%
2 | O=C(Nc1cc(-c2cccnc2)nc(NCCCN2CCOCC2)n1)c1cc(Br)cc(C(F)(F)F)c1 | 60.2 | 6.87 | 75.4 | 60.9 | -22.8 | 72.1 | -49.8 | -27.1 | 81.4 | 56.6 | 75.6 | 61.8 | 67.2 | 82.5 | 57.2 | 8.84 | 45.1 | 4.25 | 73.8 | 80.9 | growth at 0.1 µM (A549 [16]): 109%; growth at 0.1 µM [17]: 85%; growth at 10 µM [18]: 48.5%; GI50 ([19]; read-out: GI50): 3.26 µM; CC50 ([19]; read-out: LC50 (the source's name)): 39.9 µM; TGI ([19]; read-out: TGI): 14.5 µM; GI50 ([19]; read-out: pGI50 (converted)): 3.24 µM; CC50 ([19]; read-out: pLC50 (the source's name) (converted)): 39.8 µM; TGI ([19]; read-out: pTGI (converted)): 14.5 µM; growth at 0.01 µM (A549 [20]): 110%; growth at 0.01 µM (M14): 94%; growth at 10 µM [21]: -60%; growth at 10 µM [22]: -61%
3 | COCCCNc1nc(NC(=O)c2cc(Br)cc(C(F)(F)F)c2)cc(-c2cccnc2)n1 | 83.5 | 85.9 | 86.9 | 90.5 | 89.2 | 115 | 98.6 | 91 | 100 | 99.5 | 87.3 | 81.4 | 89.1 | 100 | 11.3 | 73.3 | 80.1 | 83.4 | 91.8 | 103 | growth at 10 µM [18]: 94.6%; inhibition of growth at 10 µM [23]: 42.1%; inhibition of growth at 10 µM (A498): 23.8%; inhibition of growth at 10 µM [24]: 39.5%; inhibition of growth at 10 µM [25]: 34.4%; inhibition of growth at 10 µM (SK-MEL-5): 29.5%; inhibition of growth at 10 µM (MDA-MB-231): 24.2%; inhibition of growth at 10 µM (T47D): 35%; inhibition of growth at 10 µM (K562 [26]): 26.7%
4 | COc1cc(OC)cc(C(=O)Nc2cc(-c3cccnc3)nc(NCCCN3CCOCC3)n2)c1 | 92 | 90.6 | 99.9 | 94.1 | 101 | 109 | 101 | 88.6 | 100 | 95.4 | 103 | 101 | 86.4 | 104 | 8.88 | 74.1 | 82.3 | 57.9 | 85.7 | 91.7 | growth at 10 µM [18]: 86.5%; inhibition of growth at 10 µM [24]: 46.4%; inhibition of growth at 10 µM (SK-MEL-5): 31.7%; inhibition of growth at 10 µM (MDA-MB-231): 20.4%; inhibition of growth at 10 µM (T47D): 27.2%; inhibition of growth at 10 µM (K562 [26]): 25.9%; inhibition of growth at 10 µM (NCI-H226 [15]): 32.3%
